{"source": "patent US6277829A", "about": "“Process for preparing of aqueous formulation for opthalmic use” (S.I.F.I. Societa Industria Farmaceutica Italiana S.p.A., priority 1999, dated 2001)", "key": {"[1]": {"experiment": "solubility in aqueous solution", "format": "physicochemical", "conditions": "aqueous citric acid/phosphate; process of the invention (citric acid/phosphate); read-out: solubility of azithromycin in aqueous solution", "description": "Formulations containing azithromycin at concentration ranging from 0.01 to 10% w/v, more particularly between 0.3 and 5% w/v, are the most preferred."}, "[2]": {"experiment": "titration of azithromycin and clarithromycin, dispersed in water, with citric acid (FIG. 1, FIG. 2)", "format": "physicochemical"}, "[3]": {"experiment": "Azithromycin distribution in aqueous humor after topical application", "format": "in vivo, white New Zealand rabbits", "conditions": "detection limit 3.8", "description": "Twelve male white New Zealand rabbits (weighing 1.8-2.3 kg) have been randomly divided in three groups (consisting of four animals each).\nI Group: three instillations (animals have been sacrificed 6 hours after the first dosing)\nII Group: six instillations (animals have been sacrificed 12 hours after the first dosing)\nIII Group: six instillations (animals have been sacrificed 24 hours after the first dosing)\nAqueous humor has been drawn away with a 23-gauge needle attached to an insulin syringe of 1 ml. After enucleation the cornea has been excised at the limbus and removed from the eyeball. All specimens have been carefully weighed, then immediately frozen at -20° C. […] Each specimen has been ground and homogenized with 1 ml of PBS (2 min., 24,000 rpm). The suspension has been mixed with an equal volume of acetonitrile and stored at 0° C. After 1 hour, the samples have been centrifuged at 0° C. […] Aqueous humor has been directly mixed with acetonitrile before being centrifuged."}, "gram-negative organisms": {"test_system": "gram-negative organisms", "conditions": "some gram-negative organisms, compared with other macrolides; cited from earlier work"}, "St. Pyogenes ATCC 21547": {"test_system": "St. Pyogenes ATCC 21547", "experiment": "In vitro antibacterial activity, MBC", "format": "cell-based", "conditions": "Streptococcus pyogenes", "description": "(§1) In vitro bacteriostatic/bactericidal activity of azithromycin in different ophthalmic solutions has been evaluated as a function of ([H+]). Assessment of the activity it has been carried out by standardized method recommended by the National Committee for Clinical Laboratory Standards (NCCLS). […] Accordingly, three aliquots of Mueller-Hinton broth have been adjusted to the same pH of the azithromycin solutions (three) to be tested. […] Incubation for Staphylococcus spp. and Pseudomonas spp. needs aerobic conditions whereas Streptococcus spp. and Haernophilus spp. require partial anaerobic conditions during the period of incubation (5%, CO2)."}, "S. aureus ATCC 29213": {"test_system": "S. aureus ATCC 29213", "experiment": "In vitro antibacterial activity, MBC", "format": "cell-based", "conditions": "Staphylococcus aureus", "description": "as §1"}, "H. influenzae ATCC 49247": {"test_system": "H. influenzae ATCC 49247", "experiment": "In vitro antibacterial activity, MBC", "format": "cell-based", "conditions": "Haemophilus influenzae", "description": "as §1"}, "[4]": {"test_system": "Ps. aeruginosa ATCC 27853", "experiment": "In vitro antibacterial activity, MBC", "format": "cell-based", "conditions": "Pseudomonas aeruginosa", "description": "as §1"}, "[5]": {"test_system": "S. epidermidis ATCC 12228", "experiment": "In vitro antibacterial activity, MBC", "format": "cell-based", "conditions": "Staphylococcus epidermidis", "description": "as §1"}, "[6]": {"test_system": "St. Pneumoniae ATCC 49619", "experiment": "In vitro antibacterial activity, MBC", "format": "cell-based", "conditions": "Streptococcus pneumoniae", "description": "as §1"}, "Ps. aeruginosa ATCC 9027": {"test_system": "Ps. aeruginosa ATCC 9027", "experiment": "In vitro antibacterial activity, MBC", "format": "cell-based", "conditions": "Pseudomonas aeruginosa", "description": "as §1"}, "S. aureus ATCC 6538P": {"test_system": "S. aureus ATCC 6538P", "experiment": "In vitro antibacterial activity, MBC", "format": "cell-based", "conditions": "Staphylococcus aureus, ATCC6538P", "description": "as §1"}, "S. aureus ATCC 25923": {"test_system": "S. aureus ATCC 25923", "experiment": "In vitro antibacterial activity, MBC", "format": "cell-based", "conditions": "Staphylococcus aureus", "description": "as §1"}, "H. influenzae ATCC 9006": {"test_system": "H. influenzae ATCC 9006", "experiment": "In vitro antibacterial activity, MBC", "format": "cell-based", "conditions": "Haemophilus influenzae", "description": "as §1"}, "gram-positive organisms": {"test_system": "gram-positive organisms", "conditions": "compared with other macrolides; cited from earlier work"}, "[7]": {"conditions": "background statement; cited from earlier work"}, "[8]": {"description": "The final solution (100 ml), has been sterilized and distributed in appropriate vials."}, "[9]": {"conditions": "cited from earlier work"}}}
{"smiles": "CC[C@H]1OC(=O)[C@H](C)[C@@H](O[C@H]2C[C@@](C)(OC)[C@@H](O)[C@H](C)O2)[C@H](C)[C@@H](O[C@@H]2O[C@H](C)C[C@H](N(C)C)[C@H]2O)[C@](C)(O)C[C@@H](C)CN(C)[C@H](C)[C@@H](O)[C@]1(C)O", "note": "[azithromycin]", "values": [{"measurement": "solubility", "setting": "[1]", "value": "> 100", "unit": "mg/mL"}, {"measurement": "solubilization by citric acid", "setting": "[2]; citric acid, physiological range of pH", "value": "elevated concentration"}, {"measurement": "equivalent point", "setting": "[2]; titration with citric acid", "value": "~7.0", "unit": "pH"}, {"measurement": "azithromycin concentration in aqueous humor", "setting": "[3]", "value": "< 3.8", "unit": "µg/mL"}, {"measurement": "antibacterial activity", "setting": "gram-negative organisms", "value": "superior antibacterial activity"}, {"measurement": "MBC", "setting": "St. Pyogenes ATCC 21547; ATCC21547, pH 6.5", "value": 3, "unit": "µg/mL"}, {"measurement": "MBC", "setting": "St. Pyogenes ATCC 21547; ATCC21547, pH 7.2", "value": 0.6, "unit": "µg/mL"}, {"measurement": "MBC", "setting": "St. Pyogenes ATCC 21547; ATCC21547, pH 7.5", "value": 0.35, "unit": "µg/mL"}, {"measurement": "MBC", "setting": "S. aureus ATCC 29213; ATCC29213, pH 6.5", "value": "> 4", "unit": "µg/mL"}, {"measurement": "MBC", "setting": "S. aureus ATCC 29213; ATCC29213, pH 7.2", "value": "> 4", "unit": "µg/mL"}, {"measurement": "MBC", "setting": "S. aureus ATCC 29213; ATCC29213, pH 7.5", "value": 2.25, "unit": "µg/mL"}, {"measurement": "MBC", "setting": "H. influenzae ATCC 49247; ATCC49247, pH 6.5", "value": 7, "unit": "µg/mL"}, {"measurement": "MBC", "setting": "H. influenzae ATCC 49247; ATCC49247, pH 7.2", "value": 3.5, "unit": "µg/mL"}, {"measurement": "MBC", "setting": "H. influenzae ATCC 49247; ATCC49247, pH 7.5", "value": 3, "unit": "µg/mL"}, {"measurement": "MBC", "setting": "[4]; ATCC27853, pH 7.2", "value": 100, "unit": "µg/mL"}, {"measurement": "MBC", "setting": "[4]; ATCC27853, pH 7.5", "value": 50, "unit": "µg/mL"}, {"measurement": "MBC", "setting": "[5]; ATCC12228, pH 6.5", "value": "> 4", "unit": "µg/mL"}, {"measurement": "MBC", "setting": "[5]; ATCC12228, pH 7.2", "value": 3, "unit": "µg/mL"}, {"measurement": "MBC", "setting": "[5]; ATCC12228, pH 7.5", "value": 2, "unit": "µg/mL"}, {"measurement": "MBC", "setting": "[6]; ATCC49619, pH 6.5", "value": 3, "unit": "µg/mL"}, {"measurement": "MBC", "setting": "[6]; ATCC49619, pH 7.2", "value": 0.45, "unit": "µg/mL"}, {"measurement": "MBC", "setting": "[6]; ATCC49619, pH 7.5", "value": 0.3, "unit": "µg/mL"}, {"measurement": "MBC", "setting": "Ps. aeruginosa ATCC 9027; ATCC9027, pH 7.2", "value": "> 200", "unit": "µg/mL"}, {"measurement": "MBC", "setting": "Ps. aeruginosa ATCC 9027; ATCC9027, pH 7.5", "value": 200, "unit": "µg/mL"}, {"measurement": "MBC", "setting": "S. aureus ATCC 6538P; pH 6.5", "value": "> 4", "unit": "µg/mL"}, {"measurement": "MBC", "setting": "S. aureus ATCC 6538P; pH 7.2", "value": 2.5, "unit": "µg/mL"}, {"measurement": "MBC", "setting": "S. aureus ATCC 6538P; pH 7.5", "value": 1.75, "unit": "µg/mL"}, {"measurement": "MBC", "setting": "S. aureus ATCC 25923; ATCC25923, pH 6.5", "value": "> 4", "unit": "µg/mL"}, {"measurement": "MBC", "setting": "S. aureus ATCC 25923; ATCC25923, pH 7.2", "value": 3.25, "unit": "µg/mL"}, {"measurement": "MBC", "setting": "S. aureus ATCC 25923; ATCC25923, pH 7.5", "value": 2, "unit": "µg/mL"}, {"measurement": "MBC", "setting": "H. influenzae ATCC 9006; ATCC9006, pH 6.5", "value": 6, "unit": "µg/mL"}, {"measurement": "MBC", "setting": "H. influenzae ATCC 9006; ATCC9006, pH 7.2", "value": 3.5, "unit": "µg/mL"}, {"measurement": "MBC", "setting": "H. influenzae ATCC 9006; ATCC9006, pH 7.5", "value": 3.5, "unit": "µg/mL"}, {"measurement": "antibacterial efficacy", "setting": "gram-positive organisms", "value": "same efficacy"}, {"measurement": "water solubility", "setting": "[7]", "value": "poor water solubility"}, {"measurement": "effect of azithromycin concentration on stability", "setting": "[8]", "value": "does not affect the stability of the final product"}, {"measurement": "intracellular distribution into specific tissues", "setting": "[9]; after oral administration", "value": "extensive intracellular distribution"}, {"measurement": "Half-life", "setting": "[9]; in vivo", "value": "extremely elevated"}]}
